From PMC7828518 (2021)

Columns and labels:
[1] = test system: F21T (DNA, G4) GGGTTAGGGTTAGGGTTAGGG; assay: FRET DNA melting; details: K+ (10 mM KCl), Li+ (90 mM LiCl); 10 mM lithium cacodylate pH 7.3; 5 μM compound, 0.2 μM DNA
[2] = test system: F10T (DNA, hairpin, Sp18 linker joins 3' end of first TATAGCTATA to 5' end of second (one molecule)) TATAGCTATA/TATAGCTATA; assay: FRET DNA melting; details: Li+ (100 mM LiCl) per methods; Figure 3 legend: 10 mM KCl, 90 mM LiCl; 10 mM lithium cacodylate pH 7.3; up to 10 μM compound, 0.2 μM DNA
[3] = test system: Tel22 (DNA, G4) AGGGTTAGGGTTAGGGTTAGGG; assay: circular dichroism titration; details: K+ (10 mM KCl), Li+ (90 mM LiCl); 10 mM lithium cacodylate pH 7.3, 25 °C; 4 μM DNA, ratios 1:1 to 1:5
[4] = test system: Tel22 (DNA, G4) AGGGTTAGGGTTAGGGTTAGGG; assay: equilibrium dialysis (noncompetition); details: K+ (100 mM KCl, 10 mM potassium phosphate); pH 7.2, 22 °C; apparent; per tetrad (75 μM monomeric units); 2 μM compound; per base
[5] = test system: ds17 (DNA, duplex) GGGTTACTACGAACTGG/CCAGTTCGTAGTAACCC; assay: equilibrium dialysis (noncompetition); details: K+ (100 mM KCl, 10 mM potassium phosphate), pH 7.2, 22 °C, apparent, per base pair (75 μM monomeric units), 2 μM compound

With N=C(N)N/N=C/c1ccc2ccc3ccc(/C=N/NC(=N)N)nc3c2n1 the “∆Tm” value [1] was 7 ± 1 °C, the “∆Tm” value [2] was ~ 0 °C and the binding [3] was “yes”. For the same compound, the Kapp [4] was 2.3 ± 0.5 × 10^6 M^-1 and the Kapp [5] was 0.029 ± 0.004 × 10^6 M^-1.
